Source: ChEMBL document CHEMBL4680243, “N-benzyl 4,4-disubstituted piperidines as a potent class of influenza H1N1 virus inhibitors showing a novel mechanism of hemagglutinin fusion peptide interaction” (Eur J Med Chem, 2020)
Activity calls are given as the source filed them. The rule behind the calls is not given here.

Key:
Influenza A virus [1] = test: Antiviral activity against Influenza A virus (A/PR 8/34 (H1N1)) infected in MDCK cells assessed as reduction in virus-induced cytopathic effect measured after 72 hrs by microscopic analysis; type: functional, organism-based; conditions: A/Puerto Rico/8/1934(H1N1)
Influenza A virus [2] = test: Antiviral activity against Influenza A virus (A/PR 8/34 (H1N1)) infected in MDCK cells assessed as reduction in virus-induced cytopathic effect measured after 72 hrs by MTS assay; type: functional, organism-based; conditions: A/Puerto Rico/8/1934(H1N1)
[3] = Cytotoxicity against MDCK cells assessed as change in cell morphology measured after 72 hrs by microscopic analysis; type: cell-based, Canis lupus familiaris; conditions: dog
[4] = Cytotoxicity against MDCK cells assessed as reduction in cell viability measured after 72 hrs by MTS assay; type: cell-based, Canis lupus familiaris; conditions: dog
[5] = Selectivity index, ratio of CC50 for MDCK cells to EC50 for antiviral activity against Influenza A virus (A/Puerto Rico/8/1934(H1N1)) infected in MDCK cells; type: toxicity, cell-based; conditions: dog, read-out: Ratio CC50/EC50
Influenza A virus (H1N1) [6] = test: Antiviral activity against Influenza A virus (H1N1) A/Virginia/ATCC3/2009 infected in MDCK cells assessed as reduction in virus-induced cytopathic effect measured after 72 hrs by microscopic analysis; type: functional, organism-based
Influenza A virus (H1N1) [7] = test: Antiviral activity against Influenza A virus (H1N1) A/Virginia/ATCC3/2009 infected in MDCK cells assessed as reduction in virus-induced cytopathic effect measured after 72 hrs by MTS assay; type: functional, organism-based
Influenza A virus H3N2 [8] = test: Antiviral activity against Influenza A virus H3N2 A/HK/7/87 infected in MDCK cells assessed as reduction in virus induced cytopathic effect after 72 hrs by microscopy based method; type: functional, organism-based
Influenza A virus H3N2 [9] = test: Antiviral activity against Influenza A virus H3N2 A/HK/7/87 infected in MDCK cells assessed as reduction in virus induced cytopathic effect after 72 hrs by MTS assay; type: functional, organism-based
Influenza B virus [10] = test: Antiviral activity against Influenza B virus B/HK/5/72 infected in MDCK cells assessed as reduction in virus induced cytopathic effect after 72 hrs by microscopy based method; type: functional, organism-based
Influenza B virus [11] = test: Antiviral activity against Influenza B virus B/HK/5/72 infected in MDCK cells assessed as reduction in virus induced cytopathic effect after 72 hrs by MTS assay; type: functional, organism-based
Influenza A virus [12] = test: Antiviral activity against Influenza A virus (A/PR 8/34 (H1N1)) infected in human Calu-3 cells assessed as reduction in virus-induced cytopathic effect measured after 72 hrs by microscopic analysis; type: functional, organism-based; conditions: A/Puerto Rico/8/1934(H1N1), Calu-3, 72 h
Influenza A virus [13] = test: Antiviral activity against Influenza A virus (A/PR 8/34 (H1N1)) infected in human Calu-3 cells assessed as reduction in virus-induced cytopathic effect measured after 72 hrs by MTS assay; type: functional, organism-based; conditions: A/Puerto Rico/8/1934(H1N1), Calu-3, 72 h
[14] = Cytotoxicity against HELF cells; type: cell-based; conditions: human
[15] = Cytotoxicity against human HeLa cells; type: cell-based
[16] = Selectivity index, ratio of MCC for HELF cells to EC50 for antiviral activity against Influenza A virus (A/PR 8/34 (H1N1)) infected in human Calu-3 cells; type: toxicity, cell-based; conditions: HELF cells (MCC) and Calu-3 cells (EC50), read-out: Selectivity Index
[17] = Selectivity index, ratio of MCC for human HeLa cells to EC50 for antiviral activity against Influenza A virus (A/PR 8/34 (H1N1)) infected in human Calu-3 cells; type: toxicity, cell-based; conditions: HeLa cells (MCC) and Calu-3 cells (EC50), read-out: Selectivity Index
Influenza A virus [18] = test: Antiviral activity against Influenza A virus (A/PR 8/34 (H1N1)) infected in MDCK cells assessed as reduction in viral RNA synthesis at 50 uM treated at 1 hr post-infection by RT-qPCR analysis; type: functional, organism-based; conditions: A/Puerto Rico/8/1934(H1N1)
Influenza A virus [19] = test: Antiviral activity against Influenza A virus (A/PR 8/34 (H1N1)) clone 1 infected in MDCK cells assessed as reduction in virus-induced cytopathic effect measured after 72 hrs by microscopic analysis; type: functional, organism-based; conditions: A/Puerto Rico/8/1934(H1N1)
Influenza A virus [20] = test: Antiviral activity against Influenza A virus (A/PR 8/34 (H1N1)) clone 1 infected in MDCK cells assessed as reduction in virus-induced cytopathic effect measured after 72 hrs by MTS assay; type: functional, organism-based; conditions: A/Puerto Rico/8/1934(H1N1)
Influenza A virus [21] = test: Antiviral activity against Influenza A virus (A/PR 8/34 (H1N1)) clone 2 infected in MDCK cells assessed as reduction in virus-induced cytopathic effect measured after 72 hrs by microscopic analysis; type: functional, organism-based; conditions: A/Puerto Rico/8/1934(H1N1)
Influenza A virus [22] = test: Antiviral activity against Influenza A virus (A/PR 8/34 (H1N1)) clone 2 infected in MDCK cells assessed as reduction in virus-induced cytopathic effect measured after 72 hrs by MTS assay; type: functional, organism-based; conditions: A/Puerto Rico/8/1934(H1N1)
[23] = biological target: Hemagglutinin (Influenza A virus (A/Puerto Rico/8/1934(H1N1))) (UniProt P03452); test: Inhibition of Influenza A virus (A/PR 8/34 (H1N1)) hemagglutinin transfected in human HeLa cells assessed as reduction in low pH-indued polykaryon formation at 100 uM preincubated for 15 mins followed by pH 5.2 buffer addition and measured after 5 mins by giemsa staining based microscopic analysis; type: cell-based; conditions: time 20.0 min
[24] = biological target: Hemagglutinin (Influenza A virus (A/Puerto Rico/8/1934(H1N1))) (UniProt P03452); test: Inhibition of Influenza A virus (A/PR 8/34 (H1N1)) hemagglutinin transfected in human HeLa cells assessed as reduction in low pH-indued polykaryon formation preincubated for 15 mins followed by pH 5.2 buffer addition and measured after 5 mins by giemsa staining based microscopic analysis; type: cell-based; conditions: time 20.0 min
[25] = biological target: Hemagglutinin (Influenza A virus (A/Puerto Rico/8/1934(H1N1))) (UniProt P03452); test: Inhibition of Influenza A virus (A/PR 8/34 (H1N1)) hemagglutinin infected in MDCK cells assessed as reduction in virus binding to cell surface; type: cell-based
Trypsin (Homo sapiens) = Trypsin (Homo sapiens) (UniProt P07477+P07478+P35030); test: Inhibition of human trypsin using Boc-Gln-Ala-Arg-AMC as substrate preincubated for 15 mins followed by substrate addition and measured for 60 mins by fluorescence assay; type: protein assay; conditions: time 75.0 min
[26] = biological target: T1, Transmembrane protease serine 11D (Homo sapiens) (UniProt O60235); test: Inhibition of recombinant human N-terminal His-tagged HAT (Ala42 to Ile418 residues) expressed in mouse NSO cells using Boc-Gln-Ala-Arg-AMC as substrate preincubated for 15 mins followed by substrate addition and measured for 60 mins by fluorescence assay; conditions: time 75.0 min
T1 sequence (whole entry): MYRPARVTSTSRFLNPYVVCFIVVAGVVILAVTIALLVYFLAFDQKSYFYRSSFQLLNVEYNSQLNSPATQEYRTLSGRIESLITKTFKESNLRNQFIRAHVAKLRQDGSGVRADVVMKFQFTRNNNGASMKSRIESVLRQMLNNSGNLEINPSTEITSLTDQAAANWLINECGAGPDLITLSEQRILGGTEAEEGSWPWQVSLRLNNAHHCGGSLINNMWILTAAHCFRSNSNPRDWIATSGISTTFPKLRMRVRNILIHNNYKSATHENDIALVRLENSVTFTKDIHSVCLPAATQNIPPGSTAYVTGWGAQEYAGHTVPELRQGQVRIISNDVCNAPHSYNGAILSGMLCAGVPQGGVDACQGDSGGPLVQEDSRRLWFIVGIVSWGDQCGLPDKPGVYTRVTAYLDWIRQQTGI

[27] = biological target: Cathepsin B (Homo sapiens) (UniProt P07858); test: Inhibition of human liver cathepsin B using Z-Phe-Arg-AMC as substrate preincubated for 15 mins followed by substrate addition and measured for 60 mins by fluorescence assay; conditions: time 75.0 min
[28] = biological target: T2, Cathepsin F (Homo sapiens) (UniProt Q9UBX1); test: Inhibition of recombinant human cathepsin F expressed in baculovirus infected insect cells using Z-Phe-Arg-AMC as substrate preincubated for 15 mins followed by substrate addition and measured for 60 mins by fluorescence assay; conditions: time 75.0 min
T2 sequence (whole entry): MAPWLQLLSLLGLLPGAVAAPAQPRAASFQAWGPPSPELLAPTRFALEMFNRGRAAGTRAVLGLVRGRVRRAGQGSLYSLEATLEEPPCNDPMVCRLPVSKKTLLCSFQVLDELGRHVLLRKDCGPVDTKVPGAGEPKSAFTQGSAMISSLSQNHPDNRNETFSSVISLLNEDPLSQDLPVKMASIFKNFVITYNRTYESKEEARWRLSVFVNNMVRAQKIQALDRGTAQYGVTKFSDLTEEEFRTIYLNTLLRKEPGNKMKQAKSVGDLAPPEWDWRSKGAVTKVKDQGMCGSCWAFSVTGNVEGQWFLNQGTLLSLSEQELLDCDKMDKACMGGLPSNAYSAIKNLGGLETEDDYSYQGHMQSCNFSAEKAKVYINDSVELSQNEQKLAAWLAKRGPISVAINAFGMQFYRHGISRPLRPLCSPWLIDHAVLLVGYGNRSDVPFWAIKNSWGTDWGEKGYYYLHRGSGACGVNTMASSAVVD

[29] = biological target: Procathepsin L (Homo sapiens) (UniProt P07711); test: Inhibition of human liver cathepsin L using Z-Phe-Arg-AMC as substrate preincubated for 15 mins followed by substrate addition and measured for 60 mins by fluorescence assay; conditions: time 75.0 min
Procathepsin L (Homo sapiens), sequence (P07711 114-333 limits assumed): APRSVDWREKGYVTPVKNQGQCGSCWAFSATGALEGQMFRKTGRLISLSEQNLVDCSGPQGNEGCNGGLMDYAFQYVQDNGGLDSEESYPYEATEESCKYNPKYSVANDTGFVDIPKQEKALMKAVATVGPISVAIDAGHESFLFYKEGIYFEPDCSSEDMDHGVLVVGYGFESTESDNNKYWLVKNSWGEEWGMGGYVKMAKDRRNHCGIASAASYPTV

Hemagglutinin (Influenza A virus (A/Puerto Rico/8/1934(H1N1))), sequence (P03452 whole entry): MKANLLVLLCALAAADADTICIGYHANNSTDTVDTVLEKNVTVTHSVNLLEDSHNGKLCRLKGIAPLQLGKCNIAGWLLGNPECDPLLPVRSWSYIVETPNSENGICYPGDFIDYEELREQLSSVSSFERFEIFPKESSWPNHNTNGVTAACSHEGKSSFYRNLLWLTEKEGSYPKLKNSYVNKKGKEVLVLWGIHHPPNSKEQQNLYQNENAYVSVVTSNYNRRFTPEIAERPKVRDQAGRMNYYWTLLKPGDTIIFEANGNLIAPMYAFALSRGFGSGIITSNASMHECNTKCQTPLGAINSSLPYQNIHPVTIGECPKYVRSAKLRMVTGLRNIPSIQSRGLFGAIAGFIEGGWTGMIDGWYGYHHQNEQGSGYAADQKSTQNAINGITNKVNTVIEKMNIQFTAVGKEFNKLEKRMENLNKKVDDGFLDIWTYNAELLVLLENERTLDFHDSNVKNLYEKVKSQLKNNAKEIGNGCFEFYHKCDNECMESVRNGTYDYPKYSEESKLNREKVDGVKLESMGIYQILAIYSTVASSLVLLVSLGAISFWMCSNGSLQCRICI

COC(=O)C[C@H](NC(=O)OC(C)(C)C)C(=O)N(Cc1ccc(F)cc1)C1(C(=O)NCc2ccccc2)CCN(Cc2ccccc2)CC1
EC50 (Influenza A virus [1]): 1900 nM
EC50 (Influenza A virus [2]): 2700 nM
MCC at 72 h [3]: > 100 µM
CC50 at 72 h [4]: > 100 µM
selectivity ratio [5]: 18
Activity (Influenza A virus (H1N1) [6]): inactive
Activity (Influenza A virus (H1N1) [7]): inactive
Activity (Influenza A virus H3N2 [8]): inactive
Activity (Influenza A virus H3N2 [9]): inactive
Activity (Influenza B virus [10]): inactive
Activity (Influenza B virus [11]): inactive
EC50 (Influenza A virus [12]): 1800 nM
EC50 (Influenza A virus [13]): 3000 nM
MCC [14]: 100 µM
MCC [15]: 100 µM
selectivity ratio [16]: ≥ 30
selectivity ratio [17]: ≥ 30
Activity (Influenza A virus [18]): Active
EC50 (Influenza A virus [19]): > 100 µM
EC50 (Influenza A virus [20]): > 100 µM
EC50 (Influenza A virus [21]): > 100 µM
EC50 (Influenza A virus [22]): > 100 µM
inhibition [23]: 100%
inhibition [24]: Dose-dependent effect
inhibition [25]: inactive
inhibition (Trypsin (Homo sapiens)): inactive
inhibition [26]: inactive
inhibition [27]: inactive
inhibition [28]: inactive
inhibition [29]: inactive
